Reference: patent publication US10562909B2, “Fused quadracyclic compounds, compositions and uses thereof” (Tabomedex Biosciences, LLC, priority 2016, dated 2020)

biological target: MAPKAPK2 (Homo sapiens, UniProt P49137); test: MK2 Enzymatic Assay; type: biochemical; conditions: 0.5 nM MAPKAPK2, 3 μM ATP, 2 μM Ser/Thr4 peptide, 23° C., values given as concentration bins
How it was run: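 MAPKAPK2 (2× stock 1 nM) and peptide substrate (2× 4 μM) were preincubated 20 min, then started with ATP (2× stock 6 μM) for 120 min. After 120 min development, coumarin/fluorescein emission ratio gave percent phosphorylation against 0% and 100% phosphopeptide controls.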

Sequence of MAPKAPK2 (P49137 whole entry, species assumed): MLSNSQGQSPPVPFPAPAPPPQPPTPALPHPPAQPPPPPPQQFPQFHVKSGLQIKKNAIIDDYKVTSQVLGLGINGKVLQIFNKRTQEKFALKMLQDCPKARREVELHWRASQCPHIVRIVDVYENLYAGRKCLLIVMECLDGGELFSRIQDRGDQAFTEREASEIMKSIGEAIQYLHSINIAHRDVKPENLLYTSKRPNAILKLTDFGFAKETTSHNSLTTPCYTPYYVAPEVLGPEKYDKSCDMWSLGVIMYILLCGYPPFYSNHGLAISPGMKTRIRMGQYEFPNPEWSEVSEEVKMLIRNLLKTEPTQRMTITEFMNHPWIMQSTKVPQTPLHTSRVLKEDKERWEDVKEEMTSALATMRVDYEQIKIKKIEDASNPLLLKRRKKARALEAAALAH

| SMILES | IC50 |
| --- | --- |
| NC[C@H]1CN(c2ccc3c(c2)Cn2cc(-c4ccc(F)cc4)cc2-c2nccn2-3)C[C@@H]1O [Compound 365, (3R,4S)-4-(aminomethyl)-1-(12-(4-fluorophenyl)-9H-benzo[e]imidazo[2,1-c]pyrrolo[1,2-a] [1,4]diazepin-7-yl)pyrrolidin-3-ol] | 50 to 100 nM |
| CC(C)N1CC2(CCN(c3ccc4c(c3)Cn3cc(-c5ccc(F)cc5)cc3-c3nccn3-4)C2)C1 [Compound 368, 12-(4-fluorophenyl)-7-(2-isopropyl-2,6-diazaspiro[3.4]octan-6-yl)-9H-benzo[e]imidazo[2,1-c]pyrrolo[1,2-a][1,4]diazepine] | < 50 nM |
| OCCN1CC2(CCN(c3ccc4c(c3)Cn3cc(-c5ccc(F)cc5)cc3-c3nccn3-4)C2)C1 [Compound 369, 2-(6-(12-(4-fluorophenyl)-9H-benzo[e]imidazo[2,1-c]pyrrolo[1,2-a][1,4]diazepin-7-yl)-2,6-diazaspiro[3.4]octan-2-yl)ethanol] | < 50 nM |
| C[C@H](CO)N1CC2(CCN(c3ccc4c(c3)Cn3cc(-c5ccc(F)cc5)cc3-c3nccn3-4)C2)C1 [Compound 370, (R)-2-(6-(12-(4-fluorophenyl)-9H-benzo[e]imidazo[2,1-c]pyrrolo[1,2-a][1,4]diazepin-7-yl)-2,6-diazaspiro[3.4]octan-2-yl)propan-1-ol] | < 50 nM |
| C[C@@H](CO)N1CC2(CCN(c3ccc4c(c3)Cn3cc(-c5ccc(F)cc5)cc3-c3nccn3-4)C2)C1 [Compound 371, (S)-2-(6-(12-(4-fluorophenyl)-9H-benzo[e]imidazo[2,1-c]pyrrolo[1,2-a][1,4]diazepin-7-yl)-2,6-diazaspiro[3.4]octan-2-yl)propan-1-ol] | < 50 nM |
| Fc1ccc(-c2cc3n(c2)Cc2cc(N4CCC5(C4)CN(C4CCCC4)C5)ccc2-n2ccnc2-3)cc1 [Compound 375, 7-(2-cyclopentyl-2,6-diazaspiro[3.4]octan-6-yl)-12-(4-fluorophenyl)-9H-benzo[e]imidazo[2,1-c]pyrrolo[1,2-a][1,4]diazepine] | < 50 nM |
| Fc1ccc(-c2cc3n(c2)Cc2cc(N4CCC5(CNC5)C4)ccc2-n2ccnc2-3)cc1 [Compound 376, 12-(4-fluorophenyl)-7-(2,6-diazaspiro[3.4]octan-6-yl)-9H-benzo[e]imidazo[2,1-c]pyrrolo[1,2-a][1,4]diazepine] | < 50 nM |
| Fc1ccc(-c2cc3n(c2)Cc2cc(N4CC5(CCCNC5)C4)ccc2-n2ccnc2-3)cc1 [Compound 377, 12-(4-fluorophenyl)-7-(2,6-diazaspiro[3.5]nonan-2-yl)-9H-benzo[e]imidazo[2,1-c]pyrrolo[1,2-a][1,4]diazepine] | < 50 nM |
| Fc1ccc(-c2cc3n(c2)Cc2cc(N4CC5(CCNC5)C4)ccc2-n2ccnc2-3)cc1 [Compound 378, 12-(4-fluorophenyl)-7-(2,6-diazaspiro[3.4]octan-2-yl)-9H-benzo[e]imidazo[2,1-c]pyrrolo[1,2-a][1,4]diazepine] | < 50 nM |
| CN(C)[C@@H]1CCN(c2ccc3c(c2)Cn2cc(-c4ccc(F)cc4)cc2-c2nccn2-3)C1 [Compound 379, (R)-1-(12-(4-fluorophenyl)-9H-benzo[e]imidazo[2,1-c]pyrrolo[1,2-a][1,4]diazepin-7-yl)-N,N-dimethylpyrrolidin-3-amine] | < 50 nM |
| CN(C)[C@H]1CCN(c2ccc3c(c2)Cn2cc(-c4ccc(F)cc4)cc2-c2nccn2-3)C1 [Compound 380, (S)-1-(12-(4-fluorophenyl)-9H-benzo[e]imidazo[2,1-c]pyrrolo[1,2-a][1,4]diazepin-7-yl)-N,N-dimethylpyrrolidin-3-amine] | < 50 nM |
| CN(C)C1CCN(c2ccc3c(c2)Cn2cc(-c4ccc(F)cc4)cc2-c2nccn2-3)CC1 [Compound 381, 1-(12-(4-fluorophenyl)-9H-benzo[e]imidazo[2,1-c]pyrrolo[1,2-a][1,4]diazepin-7-yl)-N,N-dimethylpiperidin-4-amine] | < 50 nM |
| CNCC1CN(c2ccc3c(c2)Cn2cc(-c4ccc(F)cc4)cc2-c2nnnn2-3)C1 [Compound 386, 1-(1-(12-(4-fluorophenyl)-9H-benzo[e]pyrrolo[1,2-a]tetrazolo[5,1-c][1,4]diazepin-7-yl)azetidin-3-yl)-N-methylmethanamine] | < 50 nM |
| CNCC1CCN(c2ccc3c(c2)Cn2cc(-c4ccc(F)cc4)cc2-c2nnnn2-3)C1 (stereo not drawn) [Compound 388, 1-(1-(12-(4-fluorophenyl)-9H-benzo[e]pyrrolo[1,2-a]tetrazolo[5,1-c][1,4]diazepin-7-yl)pyrrolidin-3-yl)-N-methylmethanamine] | < 50 nM |
| N[C@@H]1CCCN(c2ccc3c(c2)Cn2cc(-c4ccc(F)cc4)cc2-c2nnnn2-3)C1 [Compound 389, (R)-1-(12-(4-fluorophenyl)-9H-benzo[e]pyrrolo[1,2-a]tetrazolo[5,1-c][1,4]diazepin-7-yl) piperidin-3-amine] | < 50 nM |
| N[C@H]1CCCN(c2ccc3c(c2)Cn2cc(-c4ccc(F)cc4)cc2-c2nnnn2-3)C1 [Compound 390, (S)-1-(12-(4-fluorophenyl)-9H-benzo[e]pyrrolo[1,2-a]tetrazolo[5,1-c][1,4]diazepin-7-yl) piperidin-3-amine] | 50 to 100 nM |
| CN1CC2(CCN(c3ccc4c(c3)Cn3cc(-c5ccc(F)cc5)cc3-c3nnnn3-4)C2)C1 [Compound 392, 12-(4-fluorophenyl)-7-(2-methyl-2,6-diazaspiro[3.4]octan-6-yl)-9H-benzo[e]pyrrolo[1,2-a] tetrazolo[5,1-c][1,4]diazepine] | < 50 nM |
| CN(C)C[C@@H]1CCN(c2ccc3c(c2)Cn2cc(-c4ccc(F)cc4)cc2-c2nnnn2-3)C1 [Compound 393, (S)-1-(1-(12-(4-fluorophenyl)-9H-benzo[e]pyrrolo[1,2-a]tetrazolo[5,1-c][1,4]diazepin-7-yl)pyrrolidin-3-yl)-N,N-dimethylmethanamine] | < 50 nM |

The remaining lines, values ahead:

| IC50 | SMILES |
| --- | --- |
| < 50 nM | C[C@H](CO)NC[C@H]1CCN(c2ccc3c(c2)Cn2cc(-c4ccc(F)cc4)cc2-c2nccn2-3)C1 [Compound 355, (R)-2-((((R)-1-(12-(4-fluorophenyl)-9H-benzo[e]imidazo[2,1-c]pyrrolo[1,2-a][1,4]diazepin-7-yl)pyrrolidin-3-yl)methyl)amino)propan-1-ol] |
| < 50 nM | CN(C)C[C@H]1CN(c2ccc3c(c2)Cn2cc(-c4ccc(F)cc4)cc2-c2nccn2-3)C[C@@H]1O [Compound 356, (3R,4S)-4-((dimethylamino)methyl)-1-(12-(4-fluorophenyl)-9H-benzo[e]imidazo[2,1-c]pyrrolo[1,2-a][1,4]diazepin-7-yl)pyrrolidin-3-ol] |
| < 50 nM | CN(C)C[C@@H]1CN(c2ccc3c(c2)Cn2cc(-c4ccc(F)cc4)cc2-c2nccn2-3)C[C@H]1O [Compound 357, (3S,4R)-4-((dimethylamino)methyl)-1-(12-(4-fluorophenyl)-9H-benzo[e]imidazo[2,1-c]pyrrolo[1,2-a][1,4]diazepin-7-yl)pyrrolidin-3-ol] |
| < 50 nM | CC(C)[C@H](CO)NC[C@H]1CCN(c2ccc3c(c2)Cn2cc(-c4ccc(F)cc4)cc2-c2nccn2-3)C1 [Compound 358, (R)-2-((((R)-1-(12-(4-fluorophenyl)-9H-benzo[e]imidazo[2,1-c]pyrrolo[1,2-a][1,4]diazepin-7-yl)pyrrolidin-3-yl)methyl)amino)-3-methylbutan-1-ol] |
| < 50 nM | CC(C)[C@@H](CO)NC[C@H]1CCN(c2ccc3c(c2)Cn2cc(-c4ccc(F)cc4)cc2-c2nccn2-3)C1 [Compound 359, (S)-2-((((R)-1-(12-(4-fluorophenyl)-9H-benzo[e]imidazo[2,1-c]pyrrolo[1,2-a][1,4]diazepin-7-yl)pyrrolidin-3-yl)methyl)amino)-3-methylbutan-1-ol] |
| < 50 nM | CC(C)(CO)NC[C@@H]1CCN(c2ccc3c(c2)Cn2cc(-c4ccc(F)cc4)cc2-c2nccn2-3)C1 [Compound 360, (S)-2-(((1-(12-(4-fluorophenyl)-9H-benzo[e]imidazo[2,1-c]pyrrolo[1,2-a][1,4]diazepin-7-yl)pyrrolidin-3-yl)methyl)amino)-2-methylpropan-1-ol] |
| < 50 nM | OC1CCN(C[C@@H]2CCN(c3ccc4c(c3)Cn3cc(-c5ccc(F)cc5)cc3-c3nccn3-4)C2)CC1 [Compound 361, (S)-1-((1-(12-(4-fluorophenyl)-9H-benzo[e]imidazo[2,1-c]pyrrolo[1,2-a][1,4]diazepin-7-yl)pyrrolidin-3-yl)methyl)piperidin-4-ol] |
| < 50 nM | OC1CCN(C[C@H]2CCN(c3ccc4c(c3)Cn3cc(-c5ccc(F)cc5)cc3-c3nccn3-4)C2)CC1 [Compound 362, (R)-1-((1-(12-(4-fluorophenyl)-9H-benzo[e]imidazo[2,1-c]pyrrolo[1,2-a][1,4]diazepin-7-yl)pyrrolidin-3-yl)methyl)piperidin-4-ol] |
| < 50 nM | CNC[C@H]1CN(c2ccc3c(c2)Cn2cc(-c4ccc(F)cc4)cc2-c2nccn2-3)C[C@@H]1O [Compound 363, (3R,4S)-1-(12-(4-fluorophenyl)-9H-benzo[e]imidazo[2,1-c]pyrrolo[1,2-a][1,4]diazepin-7-yl)-4-((methylamino)methyl)pyrrolidin-3-ol] |
| < 50 nM | CNC[C@@H]1CN(c2ccc3c(c2)Cn2cc(-c4ccc(F)cc4)cc2-c2nccn2-3)C[C@H]1O [Compound 364, (3S,4R)-1-(12-(4-fluorophenyl)-9H-benzo[e]imidazo[2,1-c]pyrrolo[1,2-a][1,4]diazepin-7-yl)-4-((methylamino)methyl)pyrrolidin-3-ol] |
| < 50 nM | NC[C@@H]1CN(c2ccc3c(c2)Cn2cc(-c4ccc(F)cc4)cc2-c2nccn2-3)C[C@H]1O [Compound 366, (3S,4R)-4-(aminomethyl)-1-(12-(4-fluorophenyl)-9H-benzo[e]imidazo[2,1-c]pyrrolo[1,2-a] [1,4]diazepin-7-yl)pyrrolidin-3-ol] |
| < 50 nM | CCN1CC2(CCN(c3ccc4c(c3)Cn3cc(-c5ccc(F)cc5)cc3-c3nccn3-4)C2)C1 [Compound 367, 7-(2-ethyl-2,6-diazaspiro[3.4]octan-6-yl)-12-(4-fluorophenyl)-9H-benzo[e]imidazo[2,1-c] pyrrolo[1,2-a][1,4]diazepine] |
